Data on ten compounds can be found in PubChem BioAssay AID328 (DTP/NCI, 2004).

“And” between values parts separate entries of the source, which are not always exact repeats. Equal values may be shown once. Inconclusive results and toxic doses are left out.

In the test the test system is BDF1 mice, P388 leukemia ip, median survival T/C. The test is described as follows: NCI In Vivo Anticancer Drug Screen. Data for tumor model P388 Leukemia (intraperitoneal) in B6D2F1 (BDF1) mice. The settings on record: endpoint: median survival time, higher = longer survival. Put shortly:
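Each value expresses how treatment altered survival: treated-mouse outcome over vehicle-mouse outcome, both groups bearing the transplanted tumour.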

Setting [1] is: dose: 50.0 mg/kg/injection, schedule: Q01DX009 (ip), vehicle: saline with Tween-80.
Where [2] appears, read: dose: 100.0 mg/kg/injection, schedule: Q01DX009 (ip), vehicle: saline with Tween-80.
Setting [3] is: dose: 200.0 mg/kg/injection, schedule: Q01DX009 (ip), vehicle: saline with Tween-80.
Setting [4] is: dose: 25.0 mg/kg/injection, schedule: Q01DX009 (ip), vehicle: saline with Tween-80.
The mark [5] stands for this setting: dose: 400.0 mg/kg/injection, schedule: Q01DX009 (ip), vehicle: saline with Tween-80.

`O=NN(CCCl)C(=O)NC1CCCCC1`: the T/C was 116 % of control (dose: 2.4 mg/kg/injection, schedule: Q01DX009 (ip), vehicle: Klucel (hydroxypropylcellulose) (HPC)); 164 % of control (dose: 3.6 mg/kg/injection, schedule: Q01DX009 (ip), vehicle: Klucel (hydroxypropylcellulose) (HPC)); 113 % of control (dose: 4.0 mg/kg/injection, schedule: Q01DX009 (ip), vehicle: saline with Tween-80); 229 % of control (dose: 8.0 mg/kg/injection, schedule: Q01DX009 (ip), vehicle: saline with Tween-80); 153 % of control (dose: 12.5 mg/kg/injection, schedule: Q01DX009 (ip), vehicle: Klucel (hydroxypropylcellulose) (HPC)); 178 % of control (dose: 12.5 mg/kg/injection, schedule: Q01DX009 (ip), vehicle: saline). The T/C runs as follows: (dose: 16.0 mg/kg/injection, schedule: Q01DX009 (ip), vehicle: Klucel (hydroxypropylcellulose) (HPC)) 249 % of control; (dose: 16.0 mg/kg/injection, schedule: Q01DX009 (ip), vehicle: saline with Tween-80) 283 % of control; (dose: 25.0 mg/kg/injection, schedule: Q01DX001 (ip), vehicle: Klucel (hydroxypropylcellulose) (HPC)) 220 % of control; (dose: 25.0 mg/kg/injection, schedule: Q01DX009 (ip), vehicle: saline) 228 % of control; (dose: 30.0 mg/kg/injection, schedule: Q01DX001 (ip), vehicle: saline) 103 % of control; (dose: 32.0 mg/kg/injection, schedule: Q01DX009 (ip), vehicle: saline with Tween-80) 179 % of control. The T/C (dose: 35.0 mg/kg/injection, schedule: Q01DX009 (ip), vehicle: Klucel (hydroxypropylcellulose) (HPC)) is 103 % of control; the T/C (dose: 40.0 mg/kg/injection, schedule: Q01DX001 (ip), vehicle: saline) is 548 % of control and 183 % of control; the T/C (dose: 50.0 mg/kg/injection, schedule: Q01DX001 (ip), vehicle: Klucel (hydroxypropylcellulose) (HPC)) is 113 % of control; the T/C (dose: 50.0 mg/kg/injection, schedule: Q01DX001 (ip), vehicle: saline) is 174 % of control; the T/C (dose: 60.0 mg/kg/injection, schedule: Q01DX001 (oral), vehicle: carboxymethylcellulose (CMC)) is 526 % of control and 166 % of control; the T/C (dose: 64.0 mg/kg/injection, schedule: Q01DX009 (ip), vehicle: saline with Tween-80) was 88 % of control. Besides, the T/C (dose: 70.0 mg/kg/injection, schedule: Q01DX001 (ip), vehicle: saline) is 256 % of control; the T/C (dose: 90.0 mg/kg/injection, schedule: Q01DX001 (oral), vehicle: carboxymethylcellulose (CMC)) was 210 % of control and 219 % of control; the T/C (dose: 100.0 mg/kg/injection, schedule: Q01DX001 (ip), vehicle: carboxymethylcellulose (CMC)) was 219 % of control; the T/C (dose: 135.0 mg/kg/injection, schedule: Q01DX001 (oral), vehicle: carboxymethylcellulose (CMC)) is 173 % of control; the T/C (dose: 150.0 mg/kg/injection, schedule: Q01DX001 (ip), vehicle: carboxymethylcellulose (CMC)) was 526 % of control; the T/C (dose: 200.0 mg/kg/injection, schedule: Q01DX001 (oral), vehicle: carboxymethylcellulose (CMC)) is 236 % of control.

Consider `CCCCOCNc1ncccn1`, for which the T/C reads like this: under setting [1], 100 % of control and 105 % of control; under setting [2], 98 % of control and 112 % of control; under setting [3], 100 % of control.

In the case of `COc1ccc(C=Nc2c(N)[nH]c(=S)[nH]c2=O)cc1`, the T/C (dose: 100.0 mg/kg/injection, schedule: Q04DX002 (ip), vehicle: saline with Tween-80) was 115 % of control and 117 % of control; the T/C (dose: 200.0 mg/kg/injection, schedule: Q04DX002 (ip), vehicle: saline with Tween-80) is 105 % of control and 117 % of control.

Turning to `NNC(=S)N/N=C/c1ccc([N+](=O)[O-])s1`, the T/C by setting is: (dose: 100.0 mg/kg/injection, schedule: Q01DX009 (ip), vehicle: Klucel (hydroxypropylcellulose) (HPC)) 110 % of control; (dose: 200.0 mg/kg/injection, schedule: Q01DX009 (ip), vehicle: Klucel (hydroxypropylcellulose) (HPC)) 112 % of control.

As for `CNC(=N)c1ccc(NC(=N)c2ccc(NC(=N)c3ccc(NC(=O)Nc4ccc(C(=N)Nc5ccc(C(=N)Nc6ccc(C(=N)NC)cc6)cc5)cc4)cc3)cc2)cc1`, the T/C (dose: 12.5 mg/kg/injection, schedule: Q04DX003 (ip), vehicle: saline with Tween-80) is 150 % of control; the T/C (dose: 19.0 mg/kg/injection, schedule: Q04DX003 (ip), vehicle: saline with Tween-80) is 162 % of control and 186 % of control; the T/C under setting [4] was 165 % of control and 180 % of control; the T/C (dose: 25.0 mg/kg/injection, schedule: Q04DX003 (ip), vehicle: saline with Tween-80) was 163 % of control; the T/C (dose: 29.0 mg/kg/injection, schedule: Q04DX003 (ip), vehicle: saline with Tween-80) was 272 % of control and 172 % of control; the T/C (dose: 44.0 mg/kg/injection, schedule: Q04DX003 (ip), vehicle: saline with Tween-80) was 231 % of control and 195 % of control. Also, the T/C by setting is: under setting [1], 230 % of control; (dose: 66.0 mg/kg/injection, schedule: Q04DX003 (ip), vehicle: saline with Tween-80) 200 % of control; (dose: 67.0 mg/kg/injection, schedule: Q04DX003 (ip), vehicle: saline with Tween-80) 229 % of control and 195 % of control; under setting [2], 92 % of control; (dose: 100.0 mg/kg/injection, schedule: Q04DX003 (ip), vehicle: saline with Tween-80) 250 % of control and 222 % of control.

In the case of `O=Cc1[nH]c(=O)[nH]c(=O)c1Br`, the T/C (dose: 50.0 mg/kg/injection, schedule: Q04DX003 (ip), vehicle: saline with Tween-80) was 112 % of control.

Take `S=c1nc[nH]c2nc[nH]c12`: the T/C is, setting by setting: (dose: 12.5 mg/kg/injection, schedule: Q01DX009 (ip), vehicle: saline with Tween-80) 104 % of control; (dose: 15.0 mg/kg/injection, schedule: Q01DX010 (ip), vehicle: saline) 150 % of control; (dose: 20.0 mg/kg/injection, schedule: Q01DX010 (ip), vehicle: saline) 100 % of control; (dose: 20.0 mg/kg/injection, schedule: Q01DX010 (ip), vehicle: water) 110 % of control; under setting [4], 113 % of control; (dose: 26.0 mg/kg/injection, schedule: Q01DX009 (ip), vehicle: alkali diluted with saline) 104 % of control and 107 % of control. The T/C reads like this: (dose: 30.0 mg/kg/injection, schedule: Q01DX010 (ip), vehicle: saline) 90 % of control and 104 % of control; (dose: 40.0 mg/kg/injection, schedule: Q01DX010 (ip), vehicle: saline) 100 % of control; (dose: 40.0 mg/kg/injection, schedule: Q01DX010 (ip), vehicle: water) 110 % of control; (dose: 60.0 mg/kg/injection, schedule: Q01DX010 (ip), vehicle: water) 110 % of control; (dose: 72.0 mg/kg/injection, schedule: Q01DX009 (ip), vehicle: alkali diluted with saline) 117 % of control; (dose: 80.0 mg/kg/injection, schedule: Q01DX010 (ip), vehicle: saline) 104 % of control. Besides, the T/C (dose: 90.0 mg/kg/injection, schedule: Q01DX009 (ip), vehicle: alkali diluted with saline) is 107 % of control and 111 % of control; the T/C (dose: 120.0 mg/kg/injection, schedule: Q01DX009 (ip), vehicle: alkali diluted with saline) was 103 % of control; the T/C (dose: 120.0 mg/kg/injection, schedule: Q01DX010 (ip), vehicle: saline) was 109 % of control; the T/C (dose: 160.0 mg/kg/injection, schedule: Q01DX010 (ip), vehicle: saline) was 90 % of control.

On to `Nc1ccc(OS(=O)(=O)c2ccccc2)cc1`, for which the T/C runs as follows: under setting [1], 98 % of control; under setting [2], 108 % of control; under setting [3], 100 % of control; under setting [5], 90 % of control.

Regarding `COC1C=COC2(C)Oc3c(C)c(O)c4c(c3C2=O)/C(=N/C2CCC(O)OC2C)C=C(NC(=O)/C(C)=C\C(=O)C2CC2C(O)C(C)C(O)C(C)C(OC(C)=O)C1C)C4=O` (stereo not given), the T/C runs as follows: (dose: 4.6 mg/kg/injection, schedule: Q01DX009 (ip), vehicle: saline with Tween-80) 101 % of control; (dose: 9.25 mg/kg/injection, schedule: Q01DX009 (ip), vehicle: saline with Tween-80) 105 % of control; (dose: 18.5 mg/kg/injection, schedule: Q01DX009 (ip), vehicle: saline with Tween-80) 89 % of control; (dose: 37.0 mg/kg/injection, schedule: Q01DX009 (ip), vehicle: saline with Tween-80) 101 % of control.

As to `COc1cccc(/C=N\NC(=O)C(C)SC(C)C(=O)N/N=C/c2cccc(OC)c2)c1` (stereo not given), the T/C is 100 % of control under setting [2], 104 % of control under setting [3] and 104 % of control under setting [5].
